Results on eleven compounds are retold here after patent US5541232A, “Treatment of multidrug resistant diseases” (Chemex Pharmaceuticals, Inc., priority 1994, dated 1996).

pIC50: −log10 of the molar value.

The pIC50 is the negative decadic logarithm of the IC50, by convention in mol/L.

The subject of series [1] is human breast adenocarcinoma. The settings on record: cited from earlier work.
Series [2] concerns KB-3-1 human cervical carcinoma cells. Briefly: inhibition of colony formation, KB-3-1. Type of series: cell-based. The settings on record: KB 3-1, 240 h, read-out: IC50 (VBL), 50% inhibition of colony formation. An excerpt:
(§1) To investigate whether masoprocol modulates multidrug resistance, a line of multidrug resistant (GRC-1) cells which were derived from parenteral drug sensitive human cervical carcinoma (KB-3-1) cells by transfection of the mdr1 genes were employed. Such transfection was by the method set forth in Choi, et al., Cell 53:519-529, 1989. These cell lines differ only with respect to the over-expression of P-glycoprotein. These tests were designed to examine whether masoprocol modulates tumor cell drug resistance by interfering with P-glycoprotein function. […] See, Regulation of initial vinblastine influx by P-glycoprotein, Shalinsky, et al., cited above.
Masoprocol was provided by Chemex Pharmaceuticals, Inc. (Fort Lee, N.J.). Tritiated vinblastine ([^3 H]VBL) (10 Ci mmol^-1) was purchased from Moravek Biochemicals (Brea, Calif.), stored in the dark at -80° C. and protected from light during the experiments. […]
(§2) First, cells which had been seeded at 200-300 cells/dish were incubated in media containing masoprocol or VBL. After an incubation period of 10 days at 37° C. the cells were fixed with methanol and stained with Giemsa, and the number of colonies per dish were counted and expressed as a percent of the number of colonies in control conditions. […] Parenthesis indicate standard deviations determined from replicate experiments.

In series [3] the test system is P-glycoprotein. The settings on record: known, Shalinsky et al.; cited from earlier work.
The subject of series [4] is P-glycoprotein. The settings on record: cited from earlier work.
In series [5] the test system is GRC-1 multidrug resistant human cervical carcinoma cells. Briefly: inhibition of colony formation, GRC-1. Format: cell-based.
Description: as §1
Masoprocol was provided by Chemex Pharmaceuticals, Inc. (Fort Lee, N.J.). Tritiated vinblastine ([^3 H]VBL) (10 Ci mmol^-1) was purchased from Moravek Biochemicals (Brea, Calif.), stored in the dark at -80° C. and protected from light during the experiments. Dipyridamole (DPM) was provided by Boerhinger Ingelheim Pharmaceuticals, Inc. (Ridgefield, Conn.).
Drug-sensitive KB-3-1 cells and the drug resistant subline (KB-GRC-1) were obtained from Dr. Igor Roninson (University of Illinois, College of Medicine, Chicago, Ill.). Cells were maintained in Dulbecco's modified Eagle's medium supplemented with 10% fetal bovine serum and 2 mM glutamine. The KB-GRC-1 cells were maintained in medium supplemented with 6 ng/ml colchicine.
as §2

In series [6] the test system is WI-38 Lung Fibroblasts. Briefly: in vitro cytotoxicity, normal cells. Type of series: cell-based. The settings on record: Homo sapiens.
For series [7], the system named is Detroit 551 Skin Fibroblasts. Put plainly: in vitro cytotoxicity, normal cells. Format: cell-based. The settings on record: Homo sapiens.
Series [8] relates to Hs 68 Newborn Foreskin Fibroblasts. Briefly: in vitro cytotoxicity, normal cells. The settings on record: Homo sapiens. Format: cell-based.
The subject of series [9] is Lung (LX-1) cancer cells. Briefly: in vitro cytotoxicity anti tumor activity. Type of series: cell-based. The settings on record: 1 h.
The test system of series [10] is LOX-IMVI Melanoma cells. Briefly: in vitro cytotoxicity anti tumor activity. Type of series: cell-based. The settings on record: Homo sapiens.
Series [11] has as its system DLD-1 Colon cancer cells. Briefly: in vitro cytotoxicity anti tumor activity. Type of series: cell-based. The settings on record: Homo sapiens.
The test system of series [12] is Lung (NCI-H23) cancer cells. Put plainly: in vitro cytotoxicity anti tumor activity. Type of series: cell-based. The settings on record: Homo sapiens.
Series [13] deals with OVCAR3 ovarian cancer cells. Put plainly: in vitro cytotoxicity anti tumor activity. The settings on record: Homo sapiens. Type of series: cell-based.
Series [14] deals with CAK-1 Renal cancer cells. Briefly: in vitro cytotoxicity anti tumor activity. Format: cell-based.
In series [15] the test system is MCF7/0 human breast adenocarcinoma cells. Put plainly: flow cytometry P-glycoprotein function assay of doxorubicin efflux, MCF7/0 (doxorubicin sensitive). Format: cell-based. As for the experimental part:
(§3) The following tests were preformed to determine the effect of NDGA on efflux of doxorubicin (hereinafter sometimes referred to as DOX) for doxorubicin sensitive MCF7/0 and doxorubicin resistant MCF7/ADR human breast adenocarcinoma cells in vitro.
(§4) The cells were exposed to 50 μg/ml NDGA for 24 hrs prior to loading with DOX (doxorubicin) at 37° C. […] PBS. Flow analysis of cell efflux of DOX was collected over 30 minutes using the time parameter.
(§5) Procedure for P-Glycoprotein (PGP) Function Assay of Doxorubicin Efflux is shown hereunder.
(§6) 1. […] Store at room temperature.
(§7) 2. Doxorubicin (GFW=580) Make a solution of doxorubicin to contain 10 μg/ml. Store frozen at 0° C.
(§8) 4. NDGA (MW=302.36) Make a solution of NDGA to contain 50 μg/ml. Store frozen at 0° C.
(§9) 5. MCF7/0 (Doxorubicin sensitive) and MCF7/ADR (Doxorubicin resistant), human breast adenocarcinoma cell lines.
(§10) 1. Make up 2×10^6 cells per ml in PBS. Expose 1 ml of cells to 50 μg of NDGA for 24 hrs at 37° C. prior to loading with Doxorubicin.
(§11) 2. Add 1 ml of 10 μg/ml doxorubicin, mix and divide into two aliquots.
(§12) 4. Incubate both tubes at 37° C. for 30 minutes.
(§13) 5. Centrifuge the tubes at 37° C. for 5 minutes on a fast spin to pellet cells. Resuspend in 1 ml of buffer.
(§14) 6. Run immediately on the flow cytometer. Excitation 488 nm, emission 560-600 nm. Collect forward and 90° side scatter and PMT4 linear scale. Collect 10,000-50,000 events and calculate the mean channel fluorescence (MCF) for PMT4.
(§15) 7. Run both samples as close together as possible, and avoid prolonged exposure to room temperature.
In general terms: Flow cytometry measures light scatter and fluorescence of single cells or particles in a stream.

For series [16], the system named is MCF7/ADR human breast adenocarcinoma cells. Put plainly: flow cytometry P-glycoprotein function assay of doxorubicin efflux, MCF7/ADR (doxorubicin resistant). Format: cell-based. As for the experimental part:
as §3, §4, §5, §6, §7, §8, §9, §10, §11, §12, §13, §14, §15

Series [17] deals with SNB Glioblastoma cells. Briefly: in vitro cytotoxicity anti tumor activity. Type of series: cell-based.
[18] abbreviates: No NDGA, DOX + Verapamil (30 μl of a 1 mM solution).
[19] abbreviates: No NDGA, DOX alone, 5 μg×30 min, 37° C.
Where [20] appears, read: RX NDGA (50 μg/ml, 24 hrs), DOX.
[21] abbreviates: RX NDGA (50 μg/ml, 24 hrs), DOX + Verapamil.

With `CCC(=O)Oc1ccc(C[C@@H](C)[C@@H](C)Cc2ccc(OC(=O)CC)c(OC(=O)CC)c2)cc1OC(=O)CC` [NDGA Tetrapropionate], the “effectiveness against human breast adenocarcinoma” value (“effectiveness” below) in series [1] is reported as “particularly effective”.
`Oc1ccc(CCCCc2cc(O)c(O)c(O)c2)cc1O` [1-(3',4'-dihydroxyphenyl)-4(3',4',5'-trihydroxyphenyl)-butane]: the “effectiveness” value in series [1] was “particularly effective”.
Consider `CC[C@]1(O)C[C@@H]2CN(CCc3c([nH]c4ccccc34)[C@@](C(=O)OC)(c3cc4c(cc3OC)N(C)[C@H]3[C@@](O)(C(=O)OC)[C@H](OC(C)=O)[C@]5(CC)C=CCN6CC[C@]43[C@@H]65)C2)C1` [VBL], for which the negative-log IC50 (pIC50) is 8.86 in [2] and 7.28 in series [5] (Homo sapiens, 240 h, read-out: IC50 (VBL), 50% inhibition of colony formation). Besides, the P-glycoprotein substrate entry in series [3] is “known to be a P-glycoprotein substrate”. Besides, the “steady state accumulation and efflux in cells overexpressing mdr1” value in [4] is “decreased steady state accumulation and increased efflux”. In series [5] (GRC-1 vs KB-3-1), the “sensitivity of GRC-1 compared with KB-3-1 cells” value is “large differences in sensitivity”.
Take `COc1cc(CC(C)C(C)Cc2ccc(O)c(OC)c2)ccc1O` (centres unmarked) [1,4-bis(3'-methoxy-4'-hydroxyphenyl)-2,3-dimethyl butane]: the “effectiveness” value in [1] is “particularly effective”.
As to `COc1cccc2c1C(=O)c1c(O)c3c(c(O)c1C2=O)C[C@@](O)(C(=O)CO)C[C@@H]3O[C@H]1C[C@H](N)[C@H](O)[C@H](C)O1` [Doxorubicin], the pIC50 was 5.00 in series [6] (WI-38, 1 h); 6.22 in series [6] (WI-38, 70 h); 5.49 in series [7] (Detroit 551, 1 h); 5.26 in series [7] (Detroit 551, 70 h); 4.94 in series [8] (Hs68, 1 h); 6.92 in series [8] (Hs68, 70 h). Moreover, the pIC50 in [9] was 4.59; in series [10] (1 h), 5.32; in series [10] (70 h), 7.05; in series [11] (DLD-1, 1 h), 5.43; in series [11] (DLD-1, 70 h), 6.38; in series [12] (NCI-H23, 1 h) it was 5.03. Moreover, the pIC50 is 6.82 in [12] (NCI-H23, 70 h); 4.86 in [13] (OVCAR-3, 1 h); 6.15 in series [13] (OVCAR-3, 70 h); 5.42 in series [14] (1 h); 6.96 in [14] (70 h); 6.15 in [17] (1 h). Also, the pIC50 in series [17] (70 h) was 7.52. The “Mean channel fluorescence (loading of DOX in cells)” value in [15] (setting [18]) stood at 312.8; in [15] (setting [19]), 318.7; in series [15] (setting [20]), 460.4; in series [15] (setting [21]), 435.6; in series [16] (setting [18]) it was 309.9; in series [16] (setting [19]), 227.4. Moreover, the “Mean channel fluorescence (loading of DOX in cells)” value is on record as 285.6 in series [16] (setting [20]) and 365.4 in [16] (setting [21]).
Turning to `Oc1ccc(O)c(CCCCc2ccc(O)c(O)c2)c1` [1-(3',4'-dihydroxyphenyl)-4-(2',5'-dihydroxyphenyl)-butane], the “effectiveness” value in series [1] is given as “particularly effective”.
`CC(=O)Oc1ccc(C[C@@H](C)[C@@H](C)Cc2ccc(OC(C)=O)c(OC(C)=O)c2)cc1OC(C)=O` [NDGA Tetracetate]: the “effectiveness” value in [1] was “particularly effective”.
Consider `COc1cc(CCCCc2ccc(O)c(OC)c2)ccc1O` [1,4-bis(3'-methoxy-4'-hydroxyphenylbutane], for which the “effectiveness” value in series [1] is “particularly effective”.
On to `Oc1ccc(CCCCc2ccc(O)c(O)c2O)cc1O` [1-(3',4'-dihydroxyphenyl)-4-(2',3',4'-trihydroxphenyl)-butane], for which the “effectiveness” value in series [1] is listed as “particularly effective”.
With `C[C@@H](Cc1ccc(O)c(O)c1)[C@@H](C)Cc1ccc(O)c(O)c1` (relative stereo) [d,l NDGA], the “effectiveness” value in series [1] is “particularly effective”.
For the compound `Oc1ccc(CCCCc2ccccc2)cc1O` [1-(3',4'-dihydroxyphenyl)-4-phenyl butane], in series [1], the “effectiveness” value is “particularly effective”.
